pIC50: −log10 of the molar value.
How the values were obtained:
[1] = molecular target: T1, human CCK-B/gastrin receptor (Homo sapiens, UniProt P32239); assay: Inhibition of binding against gastrin receptor (125I-gastrin, CHO cells); conditions: [125I]gastrin 25 pM, CHO cells expressing human CCK-B/gastrin receptor, 37° C.
T1 construct: expressed in transfected cells; host or cells: CHO cells (Chinese hamster ovary)
T1 sequence (P32239 1-447): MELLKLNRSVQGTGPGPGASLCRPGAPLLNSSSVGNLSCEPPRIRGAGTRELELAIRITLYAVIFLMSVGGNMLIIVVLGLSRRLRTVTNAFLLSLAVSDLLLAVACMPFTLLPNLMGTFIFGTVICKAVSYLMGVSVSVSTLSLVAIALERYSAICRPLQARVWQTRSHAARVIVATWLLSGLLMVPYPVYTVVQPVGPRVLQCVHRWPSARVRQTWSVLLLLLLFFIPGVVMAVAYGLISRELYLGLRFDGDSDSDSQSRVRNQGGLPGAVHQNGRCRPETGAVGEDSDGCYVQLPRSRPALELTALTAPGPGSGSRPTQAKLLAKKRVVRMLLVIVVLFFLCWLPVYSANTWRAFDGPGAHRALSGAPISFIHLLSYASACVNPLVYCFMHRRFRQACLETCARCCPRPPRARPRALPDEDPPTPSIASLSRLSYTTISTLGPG
Method: (§1) Separation of human CCK-B/gastrin receptor cDNA clone, separation of human CCK-A receptor cDNA clone, and expression of respective cloned receptors in heterologous cells.
(§2) cDNA of human CCK-B/gastrin receptor cDNA (Pisegna et al.: Biochem. Biophys. Res. Commun., 189, 296-303, 1992) and human CCK-A receptor cDNA (Ulrich et al.: Biochem. Biophys. Res. Commun., 193, 204-211, 1993) have already been isolated. The cDNAs having the reported nucleotide sequences were prepared using routine genetic engineering techniques. The isolated human CCK-B/gastrin receptor cDNA or human CCK-A receptor cDNA was integrated in an expression vector using routine genetic engineering techniques and transfected to CHO cells derived from the Chinese hamster ovary so as to induce expression of respective receptors.
The compounds of the present invention were evaluated by the receptor-binding assay using ^125 I-gastrin and human CCK-B/gastrin receptor expressed in CHO cells. CHO cells expressing the human CCK-B/gastrin receptor were cultured using a Dulbecco's modified Eagle minimum essential medium: nutrient mixture F-12 (hereinafter abbreviated as DMEM/F-12) containing 10% fetal bovine serum at 37° C. in an aerobic phase of 5% CO2 and 95% air. Using a culture dish having a diameter of 16 mm (base area: 2 cm^2), the cells were cultured so as to obtain 5×10^5 cells. The cells were washed with a binding buffer (Earle's balanced salt solution containing 10 mM 4-(2-hydroxyethyl)-1-piperazine ethanesulfonic acid (HEPES) (pH 7.4), 0.1% bovine serum albumin, 2 mM glutamine, and 0.22% sodium hydrogen carbonate) twice, after which a binding buffer (0.5 ml) was added to the dish. To this binding buffer, a test compound (5 μl) dissolved in dimethylsulfoxide (DMSO) was added. The reaction was then allowed to start by adding 0.01 ml (final concentration: 25 pM) of [^125 I]gastrin. When a nonspecific binding amount was obtained, reaction was carried out in the presence of 1 μM of non-labelled gastrin. Reaction was allowed to proceed at 37° C. in an aerobic phase of 5% CO2 and 95% air, after which the cells were washed with phosphate-buffered saline (PBS). [^125 I]gastrin which had not been bound to the cells was removed, and the cells were lysed by adding 1% Triton X-100 (250 μl) to the dish. Radioactivity of this solution was measured by a gamma counter. A specific binding amount was obtained by subtracting a nonspecific binding amount from a total binding amount. Using the thus-obtained specific binding amount, the percentage of the value obtained from a test substance addition group with respect to that of the DMSO addition group was calculated. The percentage was subjected to Hill conversion and then a least squares method, obtaining a 50% inhibitory concentration (IC50).

human CCK-A receptor = molecular target: T2, human CCK-A receptor (Homo sapiens, UniProt P32238); assay: Inhibition of binding against CCK-A receptor (125I-CCK8, CHO cells); conditions: for receptor selectivity (IC50 ratio of CCK-A/gastrin): factor; for pIC50: [125I]CCK8 25 pM, CHO cells expressing human CCK-A receptor, 37° C.
T2 construct: expressed in transfected cells; host or cells: CHO cells (Chinese hamster ovary)
T2 sequence (P32238 1-428): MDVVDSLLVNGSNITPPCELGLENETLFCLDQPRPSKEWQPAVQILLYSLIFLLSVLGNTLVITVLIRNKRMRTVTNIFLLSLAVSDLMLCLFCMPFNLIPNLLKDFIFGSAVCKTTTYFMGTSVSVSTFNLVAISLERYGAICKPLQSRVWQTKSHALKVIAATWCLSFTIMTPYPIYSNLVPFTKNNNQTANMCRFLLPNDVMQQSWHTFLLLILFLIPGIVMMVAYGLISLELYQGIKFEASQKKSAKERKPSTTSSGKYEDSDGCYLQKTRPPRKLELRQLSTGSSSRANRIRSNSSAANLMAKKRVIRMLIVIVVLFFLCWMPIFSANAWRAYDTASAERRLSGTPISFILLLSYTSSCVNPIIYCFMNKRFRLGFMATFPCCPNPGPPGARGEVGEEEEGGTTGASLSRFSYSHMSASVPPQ
Method: as §1, §2
Test method: The compounds of the present invention were evaluated by the receptor-binding assay using ^125 I-gastrin and human CCK-B/gastrin receptor expressed in CHO cells. CHO cells expressing a human CCK-A receptor were cultured using a DMEM/F-12 containing 10% fetal bovine serum at 37° C. in an aerobic phase of 5% CO2 and 95% air. Using a culture dish having a diameter of 16 mm (base area: 2 cm^2), the cells were cultured so as to obtain 5×10^5 cells. The cells were washed with a binding buffer (Earle's balanced salt solution containing 10 mM HEPES (pH 7.4), 0.1% bovine serum albumin, 2 mM glutamine, and 0.22% sodium hydrogen carbonate) twice, after which a binding buffer (0.5 ml) was added to the dish. To this binding buffer, a test compound (5 μl) dissolved in DMSO was added. The reaction was then allowed to start by adding 0.01 ml (final concentration: 25 pM) of [^125 I]CCK8. When a nonspecific binding amount was obtained, reaction was carried out in the presence of 1 μM of non-labelled CCK-8. Reaction was allowed to proceed at 37° C. in an aerobic phase of 5% CO2 and 95% air, after which the cells were washed with PBS. [^125 I]CCK8 which had not been bound to the cells was removed, and the cells were lysed by adding 1% Triton X-100 (250 μl) to the dish. Radioactivity of this solution was measured by a gamma counter. A specific binding amount was obtained by subtracting a nonspecific binding amount from a total binding amount. Using the thus-obtained specific binding amount, the percentage of the value obtained from a test substance addition group with respect to that of the DMSO addition group was calculated. The percentage was subjected to Hill conversion and then to a least squares method, obtaining a 50% inhibitory concentration (IC50).

SMILES: COc1cccc(N(CC(=O)N(C)c2ccccc2)C(=O)CNC(=O)Nc2cccc(C(C)S(=O)(=O)O)c2)c1 (racemic) [Control compound A, potassium (±)-1-[3-[3-[N-(3-methoxyphenyl-N-(N-methyl-N-phenylcarbomoylmethyl)-carbamoylmethyl]ureido]phenylethane sulfonate, reference compound]
- pIC50 [1]: 8.19
- receptor selectivity (IC50 ratio of CCK-A/gastrin) (human CCK-A receptor): 238
- pIC50 (human CCK-A receptor): 5.83

SMILES: COc1cccc(N(C)C(=O)COc2ccccc2N(CC(=O)N(C)c2ccccc2)C(=O)CNC(=O)Nc2cccc(C(C)C(=O)O)c2)c1 (racemic) [Example 86, (±)-2-[3-[3-[N-[2-[N-(3-Methoxyphenyl)-N-methylcarbamoylmethyloxy]phenyl]-N-(N-methyl-N-phenylcarbamoylmethyl)carbamoylmethyl]ureido]phenyl]propionic acid]
- pIC50 [1]: 9.00

SMILES: Cc1cc(C)cc(N(C)C(=O)COc2ccccc2N(CC(=O)N(C)c2ccccc2)C(=O)CNC(=O)Nc2cccc(C(C)C(=O)O)c2)c1 (racemic) [Example 92, Sodium (±)-2-[3-[3-[N-[2-[N-methyl-N-(3,5-dimethylphenyl)carbamoylmethyloxy]phenyl]-N-(N-methyl-N-phenylcarbamoylmethyl)carbamoylmethyl]ureido]phenyl]sodium propionate]
- pIC50 [1]: 9.30
- receptor selectivity (IC50 ratio of CCK-A/gastrin) (human CCK-A receptor): 7280
- pIC50 (human CCK-A receptor): 5.44

SMILES: Cc1cccc(N(C)C(=O)COc2ccccc2N(CC(=O)N(C)c2ccccc2)C(=O)CNC(=O)Nc2cccc(CC(=O)O)c2)c1 [Example 73, 2-[3-[3-[N-[2-[N-Methyl-N-(3-methylphenyl)carbamoylmethyloxy]phenyl]-N-(N-methyl-N-phenylcarbamoylmethyl)carbamoylmethyl]ureido]phenyl]acetic acid]
- pIC50 [1]: 8.72

SMILES: COc1cccc(N(C)C(=O)COc2ccccc2N(CC(=O)N(C)c2ccccc2)C(=O)CNC(=O)Nc2cccc(CC(=O)O)c2)c1 [Example 87, 2-[3-[3-[N-[2-[N-(3-Methoxyphenyl)-N-methylcarbamoylmethyloxy]phenyl]-N-(N-methyl-N-phenylcarbamoylmethyl)carbamoylmethyl]ureido]phenyl]acetic acid]
- pIC50 [1]: 9.06
- receptor selectivity (IC50 ratio of CCK-A/gastrin) (human CCK-A receptor): 3654
- pIC50 (human CCK-A receptor): 5.50

SMILES: Cc1ccccc1N(C)C(=O)COc1cccc(N(CC(=O)N(C)c2ccccc2)C(=O)CNC(=O)Nc2cccc(C(C)C(=O)O)c2)c1 (racemic) [Example 79, (±)-2-[3-[3-[N-[3-[N-Methyl-N-(2-methylphenyl)carbamoylmethyloxy]phenyl]-N-(N-methyl-N-phenylcarbamoylmethyl)carbamoylmethyl]ureido]phenyl]propionic acid]
- pIC50 [1]: 8.80
